Experimental findings from patent US20100272675A1, “METHOD OF ADMINISTERING CONJUGATES” (ENDOCYTE, INC., priority 2007, published 2010) are described below.

Molecules are shown by their SMILES.

Data set [1] relates to 4T1c2 cells (a breast tumor cell line). Nature of the data set: Effect of ligand conjugates on tumor volume for mice with breast tumor implants. It counts as in vivo. The method, then: Two regimens were tested. In the first regimen, six to eight-week old (˜20-22 grams) female Balb/c mice were immunized with fluorescein isothiocyanate (FITC)-labeled keyhole limpet hemocyanin (KLH; see FIG. 5) at 35 μg/dose using a saponin adjuvant (e.g., GPI-0100; 100 μg/dose) at days 1, 15, and 29. On day 23, each animal was injected with 2.5×10^5 4T1c2 cells (a breast tumor cell line). Cancer loci were then allowed to grow. From days 42-60, all animals were injected daily ((qd×5)3; days 42-46, 49-53, and 56-60) with either phosphate buffered saline (PBS) or 500 nmol/kg of FITC-conjugated to folic acid via a gamma carboxyl-linked ethylene diamine bridge (see FIG. 4). The animals were injected on the same days with 20,000 U/dose of recombinant human IL-2. The animals were injected (TIW)3 with IL-2 in the same weeks as the animals were injected with folate-FITC.
In the second regimen, six to eight-week old (˜20-22 grams) female Balb/c mice were immunized with fluorescein isothiocyanate (FITC)-labeled keyhole limpet hemocyanin (KLH) at 35 μg/dose using a saponin adjuvant (e.g., GPI-0100; 100 μg/dose) at days 1, 15, and 29. On day 5, each animal was injected with 2.5×10^5 4T1c2 cells. Cancer loci were then allowed to grow. From days 8-50, all animals were injected daily ((qd×5)6) with either phosphate buffered saline (PBS) or 500 nmol/kg of FITC-conjugated to folic acid via a gamma carboxyl-linked ethylene diamine bridge. The animals were injected daily on days 32-50 with 20,000 U/dose of recombinant human IL-2. The animals were injected (TIW)3 with IL-2 in the same weeks as the animals were injected with folate-FITC.
The efficacy of this immunotherapy was then evaluated by monitoring tumor volume as a function of time for folate-FITC treated mice compared to control animals.

Data set [2] is described as follows: Active systemic anaphylaxis assay in guinea pigs immunized against EC90 plus GPI-0100 adjuvant. It counts as in vivo. As to conditions: guinea pigs immunized days 1, 8, 15 with EC90 plus 0.5 mg GPI-0100; de-sensitized days 8-12 and 15-19 with EC17 spiked with 10% (mole) Bis-FITC-eda; s.c. challenge day 22. As for the experimental part: Male and female guinea pigs (1 per sex per group) were immunized three times, on Days 1, 8, and 15, with various doses of EC90 plus 0.5 mg GPI-0100. A single dose of test article (EC17+/− Bis-FITC-eda) was administered (s.c.) on Day 22. Guinea pigs were de-sensitized with multiple doses of EC 17 spiked with 10% (mole) Bis-FITC-eda on Days 8-12, and 15-19. On Day 22, these animals were s.c. challenged with the same EC17/Bis-FITC-eda formulation. Clinical observations were generally taken for 1.5-2 hours post challenge. […] Complete macroscopic postmortem examinations were performed on all animals (FIG. 9).

On to `Nc1nc2ncc(CNc3ccc(C(=O)NC(CCC(=O)NCCNC(=S)Nc4ccc(-c5c6ccc(=O)cc-6oc6cc(O)ccc56)c(C(=O)O)c4)C(=O)O)cc3)nc2c(=O)[nH]1` (stereo not shown) [EC17], for which the “tumor volume as a function of time compared to control animals” value in data set [1] (Balb/c mice immunized with KLH-FITC 35 μg/dose + GPI-0100 100 μg/dose, folate-FITC 500 nmol/kg daily plus IL-2 20,000 U/dose, early or late dosing protocol) is recorded as “decreased”. Moreover, the “effect on tumor volume, early dosing protocol” value in data set [1] (folate-FITC 500 nmol/kg daily (qd×5)6 from days 8-50, IL-2 20,000 U/dose days 32-50) is given as “effective in decreasing tumor volume”. The “tumor volume, early versus late dosing protocol” value in data set [1] (folate-FITC 500 nmol/kg, late: days 42-60, early: days 8-50, plus IL-2) is on record as “similar”. The “allergenicity (signs of anaphylaxis after s.c. challenge), effect of early dosing” value in data set [2] is reported as “reduces allergenicity”.
